Results as given in patent publication US5710170A, “Tri-aryl ethane derivatives as PDE IV inhibitors” (Merck Frosst Canada, Inc., priority 1996, dated 1998).

test system: papillary muscle; assay: not given; settings: general statement; cited from earlier work

| SMILES | direct inotropic effects of known PDE inhibitors |
| --- | --- |
| Cc1[nH]c(=O)c(C#N)cc1-c1ccncc1 [milrinone] | positive chronotropic and inotropic effects |
| COc1ccc(C2CNC(=O)C2)cc1OC1CCCC1 (stereo not shown) [rolipram] | do not have any direct effects |

test system: not given; assay: not given; settings: used in asthma as a bronchodilator; cited from earlier work

| SMILES | cardiovascular changes |
| --- | --- |
| Cn1c(=O)c2[nH]cnc2n(C)c1=O [theophylline] | significant cardiovascular changes such as tachycardia |

target: T1, GST-Met 248 PDE IVa (GST fusion protein of the human recombinant phosphodiesterase IVa (met-248)) (Homo sapiens, UniProt P27815); assay: SPA based PDE activity assay: inhibition of human recombinant PDE IVa (GST-Met 248); assay type: biochemical; settings: 100 nM cAMP; purified GST fusion protein, baculovirus/Sf-9 expression system
T1 construct: phosphodiesterase IVa (met-248); made in house; host or cells: Sf-9 insect cells (baculovirus)
Method: SPA Based PDE Activity Assay Protocol
Compounds which inhibit the hydrolysis of cAMP to AMP by the type-IV cAMP-specific phosphodiesterases were screened in 96-well plate format as follows:
In a 96 well-plate at 30° C. was added the test compound (dissolved in 2 ul DMSO), 188 ml of substrate buffer containing [2,8-^3 H] adenosine 3',5'-cyclic phosphate (cAMP, 100 nM to 50 μM), 10 mM MgCl2, 1 mM EDTA, 50 mM Tris, pH 7.5. The reaction was initiated by the addition of […] of human recombinant PDE-IV (the amount was controlled so that ~10% product was formed in 10 min. at 30° C.). The reaction was stopped after 10 min. by the addition of 1 mg of PDE-SPA beads (Amersham). The product AMP generated was quantified on a Microbeta 96-well plate counter. The signal in the absence of enzyme was defined as the background. 100% activity was defined as the signal detected in the presence of enzyme and DMSO with the background subtracted. Percentage of inhibition was calculated accordingly. IC50 value was approximated with a non-linear regression fit of the standard 4-parameter/multiple binding sites equation from a ten point titration.
IC50 values shown in Table 4 were determined with 100 nM cAMP using the purified GST fusion protein of the human recombinant phosphodiesterase IVa (met-248) produced from a baculovims/Sf-9 expression system.

T1 sequence (P27815 248-886 limits assumed): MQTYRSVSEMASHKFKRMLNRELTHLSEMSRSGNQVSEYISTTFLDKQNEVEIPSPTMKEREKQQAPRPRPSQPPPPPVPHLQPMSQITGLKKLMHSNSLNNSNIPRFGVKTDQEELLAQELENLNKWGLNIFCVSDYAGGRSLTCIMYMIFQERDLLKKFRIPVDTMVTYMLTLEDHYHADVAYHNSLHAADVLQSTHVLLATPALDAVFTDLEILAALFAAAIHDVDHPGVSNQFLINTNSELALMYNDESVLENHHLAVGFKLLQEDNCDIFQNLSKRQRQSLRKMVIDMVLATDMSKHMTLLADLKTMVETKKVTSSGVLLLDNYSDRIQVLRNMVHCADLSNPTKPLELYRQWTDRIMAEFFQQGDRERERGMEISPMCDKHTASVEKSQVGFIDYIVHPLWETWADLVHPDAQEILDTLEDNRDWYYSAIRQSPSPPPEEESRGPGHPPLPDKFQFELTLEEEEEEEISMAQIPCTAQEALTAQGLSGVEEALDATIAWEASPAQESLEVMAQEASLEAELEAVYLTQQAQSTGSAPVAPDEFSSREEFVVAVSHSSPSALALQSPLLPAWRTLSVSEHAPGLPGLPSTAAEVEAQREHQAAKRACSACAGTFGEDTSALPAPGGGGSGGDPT

| IC50 [nM] | SMILES |
| --- | --- |
| 4 | COc1ccc([C@H](Cc2ccncc2)c2ccc(C(=O)NS(C)(=O)=O)cc2)cc1OC1CCCC1 [Example 1, N-{(R)-4-[1-(3-Cyclopentyloxy-4-methoxyphenyl)-2-(4-pyridyl)ethyl]benzoyl}methanesulfonamide] |
| 0.5 | COc1ccc([C@H](Cc2ccncc2)c2ccc(C(=O)NS(=O)(=O)c3ccccc3)cc2)cc1OC1CCCC1 [Example 2, N-{(R)-4-[1-(3-Cyclopentyloxy-4-methoxyphenyl)-2-(4-pyridyl)ethyl]benzoyl}benzenesulfonamide] |
| 1 | COc1ccc([C@H](Cc2ccncc2)c2ccc(C(=O)NS(=O)(=O)C(F)(F)F)cc2)cc1OC1CCCC1 [Example 3, N-{(R)-4-[1-(3-Cyclopentyloxy-4-methoxyphenyl)-2-(4-pyridyl)ethyl]benzoyl}trifluoromethanesulfonamide] |
| 0.4 | COc1ccc([C@H](Cc2ccncc2)c2ccc(C(=O)NS(=O)(=O)c3ccccc3C)cc2)cc1OC1CCCC1 [Example 4, N-{(R)-4-[1-(3-Cyclopentyloxy-4-methoxyphenyl)-2-(4-pyridyl)ethyl]benzoyl}o-toluenesulfonamide] |
| 1.5 | COc1ccc([C@H](Cc2ccncc2)c2ccc(CC(=O)NS(=O)(=O)c3ccccc3)cc2)cc1OC1CCCC1 [Example 5, N-{(R)-4-[1-(3-Cyclopentyloxy-4-methoxyphenyl)-2-(4-pyridyl)ethyl]phenylacetyl}benzenesulfonamide] |
| 0.8 | COc1ccc([C@H](Cc2ccncc2)c2ccc(CC(=O)NS(=O)(=O)C(F)(F)F)cc2)cc1OC1CCCC1 [Example 6, N-{(R)-4-[1-(3-Cyclopentyloxy-4-methoxyphenyl)-2-(4-pyridyl)ethyl]phenylacetyl}trifluoromethanesulfonamide] |
| 0.2 | COc1ccc([C@H](Cc2ccncc2)c2ccc(C(O)(C(F)(F)F)C(F)(F)F)cc2)cc1OC1CCCC1 [Example 7, (R)-4-{2-(3-Cyclopentyloxy-4-methoxyphenyl)-2-[4-(1,1,1,3,3,3-hexafluoro-2-hydroxypropan-2-yl)phenyl]ethyl}pyridine] |
| 0.7 | COc1ccc(C(Cc2ccncc2)c2ccc(S(=O)(=O)NC(=O)c3ccccc3C)cc2)cc1OC1CCCC1 (stereo not shown) [Example 8, N-(o-Toluoyl)-4-[1-(3-Cyclopentyloxy-4-methoxyphenyl)-2-(4-pyridyl)ethyl]benzenenesulfonamide] |

test system: right atrial muscle; assay: not given; settings: right atria; general statement; cited from earlier work

| SMILES | direct chronotropic effects of known PDE inhibitors |
| --- | --- |
| Cc1[nH]c(=O)c(C#N)cc1-c1ccncc1 [milrinone] | positive chronotropic and inotropic effects |
| COc1ccc(C2CNC(=O)C2)cc1OC1CCCC1 (stereo not shown) [rolipram] | do not have any direct effects |
